*1 amine or outer side, *2 acyl side, *3 side chain or, on linkers, in order; H or OH if unused. Where a SMILES comes first, the peptide text is derived from it. [ ]: non-standard residue; d: D form. The star is where a group is joined. NH(CH2CH2O)2(CH2)6Cl = ClCCCCCCOCCOCCN*; Suc = O=C(CCC(=O)[*:2])[*:1]; 2Pyrimidinyl = c1cnc(*)nc1; Orn = NCCC[C@H](N)C(=O)O
Tested on: HEK cells stably expressing a HaloTag-GFP-mitochondrial localized construct
Assay: Chloroalkane penetration/permeability assay (CAPA)
Type: in vitro ADME
Conditions: modified peptide versus its unmodified control (ct-1l, ct-1m)
Procedure: at room temperature. Peptides were synthesized using standard protocols. Peptides were cleaved from the resin using a cocktail of 95:5, trifluoroacetic acid:water for 2 h. The resin was removed by filtration, and the resulting solution was concentrated via air flow. The residue was washed with cold ether (3 x 10 mL), precipitating a white solid. Ether was removed via vacuum overnight. The white solid was diluted with ACN/H2O mixture. The resulting solution was purified by HPLC.
VI. BD FACSymphony™ Flow Cytometer. Flow cytometry analysis was performed on a BD FACSymphony™ system equipped with decagon (2-10 PMTs) or cascade (2-20 PMTs) detector arrays. […] Signal detection combines PMTs (side scatter/fluorescence) and photodiodes (forward scatter), with longpass dichroic and bandpass filters for wavelength selection. […] The absorbance of the molecule is 533 nm and emission is […]
VII. […] After recovery from selection and reaching near-confluency, the cells were deemed ready for CAPA experiments. […]
Experimental Protocol Design Control Implementation. […] No-molecule control wells receive only dilution buffer during the pulse step, thereby establishing the maximum red fluorescence baseline. […]

CC[C@H](C)[C@H](NC(=O)[C@H](CO)NC(=O)[C@@H](NC(=O)[C@@H]1CCCN1C(=O)[C@H](CCCNc1ncccn1)NC(=O)[C@H](Cc1c[nH]c2ccccc12)NC(=O)CCC(=O)NCCOCCOCCCCCCCl)C(C)C)C(N)=O [ct-2l] ({NH(CH2CH2O)2(CH2)6Cl-Suc}-W[Orn](2Pyrimidinyl)PVSI-NH2)
increase in membrane permeability following conversion of arginine into the amino pyrimidine derivative: 2 fold

CC(C)[C@H](NC(=O)CCC(=O)NCCOCCOCCCCCCCl)C(=O)NCC(=O)N[C@@H](CCCNc1ncccn1)C(=O)N[C@@H](C)C(=O)N[C@@H](Cc1c[nH]c2ccccc12)C(=O)N[C@@H](CC(N)=O)C(=O)N[C@@H](Cc1ccc(O)cc1)C(=O)N[C@@H](C)C(N)=O [ct-2m] ({NH(CH2CH2O)2(CH2)6Cl-Suc}-VG[Orn](2Pyrimidinyl)AWNYA-NH2)
increase in membrane permeability following conversion of arginine into the amino pyrimidine derivative: 2 fold

— paper PMC12624831, “Expanding Peptide Chemical Space via Acid-Mediated Arginine Modification” (Organic Letters, 2025)
